For 8 compounds, TGI and GI50 results are on record in PubChem BioAssay (NCI).

Test systems include MDA-MB-231 breast; SK-MEL-5 melanoma; SN12C renal; SK-MEL-2 melanoma; OVCAR-3 ovarian; SF-268 CNS; SK-MEL-28 melanoma; 786-0 renal; SW-620 colon; LOX IMVI melanoma.
Holding throughout (assay): growth of human tumour cells (NCI), 48 h

“And” between values parts separate entries of the source, which are not always exact repeats. Equal values may be shown once.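 Dose response: 5 concentrations. Exposure: 48 h. Format: 96-well plates. Endpoint: linear interpolation; highest concentration if not reached. GI50: concentration for 50% inhibition of growth. TGI is the concentration that stops growth completely.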

On to `COc1ccccc1NC(=O)CC(=O)n1nc(C)c(N=Nc2ccccc2Cl)c1C`, for which the TGI in the assay on MDA-MB-231 breast, in the assay with SK-MEL-5 melanoma, with SN12C renal, in the assay with SK-MEL-2 melanoma, in the assay on OVCAR-3 ovarian and in the assay on SF-268 CNS was greater than 100 µM in each case. The TGI in the assay with SK-MEL-28 melanoma, in the assay with 786-0 renal, in the assay on SW-620 colon and in the assay with LOX IMVI melanoma was greater than 100 µM throughout.

Consider `Cc1ccc(-c2nc(/C=N/Nc3cc(C)nc4ccc(Br)cc34)c(C)o2)cc1`, for which the GI50 in the assay on MDA-MB-231 breast is 1.98 µM; in the assay with SK-MEL-5 melanoma, 3.7 µM; in the assay on SN12C renal, 1.88 µM; with SK-MEL-2 melanoma it was 19.7 µM; with OVCAR-3 ovarian, 1.88 µM; in the assay with SF-268 CNS, 2.09 µM. Besides, the GI50 is 1.73 µM with SK-MEL-28 melanoma, 1.86 µM in the assay with 786-0 renal, 1.92 µM in the assay on SW-620 colon and 1.88 µM with LOX IMVI melanoma. Besides, the TGI worked out at 3.77 µM with MDA-MB-231 breast; 13.6 µM with SK-MEL-5 melanoma; 3.69 µM in the assay with SN12C renal; 41.2 µM in the assay with SK-MEL-2 melanoma; 3.36 µM in the assay with OVCAR-3 ovarian; 4.22 µM with SF-268 CNS. In addition, the TGI turned out to be 3.25 µM with SK-MEL-28 melanoma, 3.67 µM in the assay on 786-0 renal, 3.68 µM in the assay with SW-620 colon and 3.57 µM with LOX IMVI melanoma.

As to `COc1c(C)c(OC)c(C(=O)CC(C)C)c(OC)c1C`, the TGI in the assay with MDA-MB-231 breast, with SK-MEL-5 melanoma, in the assay with SN12C renal, with SK-MEL-2 melanoma, in the assay on OVCAR-3 ovarian and in the assay on SF-268 CNS was greater than 100 µM each time. Also, the TGI in the assay with SK-MEL-28 melanoma, in the assay with 786-0 renal, in the assay with SW-620 colon and in the assay with LOX IMVI melanoma was greater than 100 µM throughout.

Take `CCc1cccc(NC(=O)Nc2ccc(Oc3ccc4nc(NC(=O)OC)[nH]c4c3)cc2)c1`: the GI50 with MDA-MB-231 breast is 7.76 µM; in the assay with SK-MEL-5 melanoma, 1.29 µM; with SN12C renal, 8.43 µM; with SK-MEL-2 melanoma it was 2.94 µM; with OVCAR-3 ovarian, 3.65 µM; in the assay on SF-268 CNS it was 4.33 µM. Also, the GI50 in the assay with SK-MEL-28 melanoma was 3.52 µM; with 786-0 renal, 7 µM; in the assay with SW-620 colon it was 3.05 µM; in the assay with LOX IMVI melanoma, 3.77 µM. Also, the TGI was greater than 25 µM in the assay with MDA-MB-231 breast; 7.15 µM with SK-MEL-5 melanoma; greater than 25 µM with SN12C renal; 12.3 µM in the assay with SK-MEL-2 melanoma; 10 µM with OVCAR-3 ovarian; 15.9 µM in the assay on SF-268 CNS. The TGI in the assay with SK-MEL-28 melanoma was 9.49 µM; with 786-0 renal, greater than 25 µM; in the assay with SW-620 colon, 12.1 µM; with LOX IMVI melanoma, greater than 17.3 µM.

On to `O=C(Nc1cn[nH]c1-c1nc2ccc(CN3CCOCC3)cc2[nH]1)NC1CC1`, for which the GI50 with MDA-MB-231 breast was 1.18 µM and 1.48 µM; in the assay on SK-MEL-5 melanoma it was 1.34 µM and 8.52 µM; in the assay on SN12C renal, 0.468 µM and 2.54 µM; in the assay with SK-MEL-2 melanoma, 1.35 µM and > 10 µM; in the assay with OVCAR-3 ovarian, 0.306 µM and 1.32 µM; in the assay on SF-268 CNS, 0.344 µM and 1.84 µM. Further, the GI50 in the assay with SK-MEL-28 melanoma was 1.79 µM and > 10 µM; in the assay with 786-0 renal, 1.06 µM and 1.67 µM; with SW-620 colon it was 0.573 µM and 1.32 µM; in the assay on LOX IMVI melanoma, 0.324 µM and 0.604 µM. Further, the TGI was 10.3 µM and > 10 µM in the assay with MDA-MB-231 breast; 3.68 µM and > 10 µM in the assay on SK-MEL-5 melanoma; 12.1 µM and > 10 µM in the assay with SN12C renal; 3.94 µM and > 10 µM in the assay with SK-MEL-2 melanoma; 6.3 µM and 6.7 µM in the assay on OVCAR-3 ovarian; 2.44 µM and > 10 µM in the assay with SF-268 CNS. The TGI in the assay with SK-MEL-28 melanoma was 5.7 µM and > 10 µM; in the assay on 786-0 renal, 7.68 µM and > 10 µM; in the assay with SW-620 colon, 11.5 µM and > 10 µM; in the assay with LOX IMVI melanoma, 1.88 µM and > 10 µM.

As for `Cc1nc2ccccc2c(/C=C/c2ccccc2)c1C(=O)/C=C/c1ccc(C(F)(F)F)cc1`, the GI50 in the assay with MDA-MB-231 breast is 1.65 µM; in the assay with SK-MEL-5 melanoma it was 1.73 µM; with SN12C renal, 1.73 µM; in the assay on SK-MEL-2 melanoma, 1.87 µM; in the assay on SK-MEL-28 melanoma it was 1.74 µM; in the assay with 786-0 renal it was 1.22 µM. The GI50 with SW-620 colon was 1.02 µM; with LOX IMVI melanoma it was 1.09 µM. The TGI amounted to 3.38 µM in the assay on MDA-MB-231 breast; 3.13 µM in the assay with SK-MEL-5 melanoma; 4.16 µM in the assay on SN12C renal; 3.95 µM in the assay with SK-MEL-2 melanoma; 3.27 µM in the assay on SK-MEL-28 melanoma; 2.71 µM with 786-0 renal. The values for the TGI in the assay on SW-620 colon and in the assay on LOX IMVI melanoma were 3.49 µM and 2.34 µM, respectively.

With `COc1ccc2c(c1)C(=O)c1c-2c(N2CCN(C(=O)CCNCCNCCN)CC2)nc2ccccc12`, the GI50 was 7.25 µM in the assay on MDA-MB-231 breast; 17.6 µM in the assay on SK-MEL-5 melanoma; 12.2 µM in the assay with SN12C renal; 12.4 µM with SK-MEL-2 melanoma; 16.8 µM in the assay with OVCAR-3 ovarian; 4.97 µM in the assay on SF-268 CNS. The figures for the GI50 with SK-MEL-28 melanoma, in the assay on 786-0 renal and in the assay on SW-620 colon were 2.04 µM, 2.51 µM and 1.86 µM, respectively. Further, the TGI came out at 27.5 µM in the assay on MDA-MB-231 breast; 36.6 µM with SK-MEL-5 melanoma; 38.6 µM in the assay with SN12C renal; 37 µM in the assay on SK-MEL-2 melanoma; 61.2 µM with OVCAR-3 ovarian; 20.3 µM with SF-268 CNS. Further, the TGI with SK-MEL-28 melanoma amounted to 3.66 µM; in the assay on 786-0 renal, 6.62 µM; in the assay on SW-620 colon it was 3.65 µM.

In the case of `O=C(c1ccc2ccccc2c1)c1c(C(F)(F)F)n([O-])c2cc(C(F)(F)F)ccc2[n+]1=O`, the GI50 in the assay with MDA-MB-231 breast was 1.7 µM; in the assay with SK-MEL-5 melanoma, 8.14 µM; in the assay on SN12C renal, 1.68 µM; in the assay on SK-MEL-2 melanoma, 2.02 µM; with OVCAR-3 ovarian it was 1.48 µM; in the assay with SF-268 CNS it was 1.56 µM. Besides, the figures for the GI50 in the assay on SK-MEL-28 melanoma, with 786-0 renal and with LOX IMVI melanoma were 1.74 µM, 1.62 µM and 1.63 µM, respectively. For the same compound, the TGI in the assay on MDA-MB-231 breast is 3.25 µM; in the assay on SN12C renal, 3.81 µM; in the assay with SK-MEL-2 melanoma it was 3.86 µM; in the assay on OVCAR-3 ovarian, 2.97 µM; with SF-268 CNS, 3.05 µM; in the assay on SK-MEL-28 melanoma it was 3.38 µM. The TGI came to 3.15 µM in the assay on 786-0 renal and 3.22 µM in the assay with LOX IMVI melanoma.
